Measurements taken from ChEMBL document CHEMBL2439969, “Replacement of Thr32 and Gln34 in the C-terminal neuropeptide Y fragment 25-36 by cis-cyclobutane and cis-cyclopentane β-amino acids shifts selectivity toward the Y(4) receptor” (J Med Chem, 2013).
pEC50, pIC50, pKi: −log10 of the molar value. Residues, ends and D or L forms follow the SMILES beside them.

Columns and labels:
[1] = molecular target: T1, Neuropeptide Y receptor type 2 (Homo sapiens, UniProt P49146); assay: Displacement of Cy5-pNPY from human Y2 receptor expressed in CHO cells after 90 to 120 mins by flow cytometry; format: cell-based
T1 sequence (P49146 whole entry): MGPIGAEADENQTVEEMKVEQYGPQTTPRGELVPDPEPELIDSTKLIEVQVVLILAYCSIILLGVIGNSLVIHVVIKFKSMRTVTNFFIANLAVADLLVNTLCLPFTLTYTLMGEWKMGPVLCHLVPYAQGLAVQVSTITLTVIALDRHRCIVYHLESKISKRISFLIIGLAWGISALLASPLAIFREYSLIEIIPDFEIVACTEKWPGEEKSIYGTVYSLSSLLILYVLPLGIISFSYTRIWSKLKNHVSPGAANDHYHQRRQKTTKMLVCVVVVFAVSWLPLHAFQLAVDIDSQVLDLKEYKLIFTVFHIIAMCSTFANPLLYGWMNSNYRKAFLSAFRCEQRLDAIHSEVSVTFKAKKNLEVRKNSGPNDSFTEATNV

[2] = molecular target: T2, Neuropeptide Y receptor type 1 (Homo sapiens, UniProt P25929); assay: Displacement of Cy5-pNPY from human Y1 receptor expressed in HEL cells after 90 to 120 mins by flow cytometry; format: cell-based
T2 sequence (P25929 whole entry): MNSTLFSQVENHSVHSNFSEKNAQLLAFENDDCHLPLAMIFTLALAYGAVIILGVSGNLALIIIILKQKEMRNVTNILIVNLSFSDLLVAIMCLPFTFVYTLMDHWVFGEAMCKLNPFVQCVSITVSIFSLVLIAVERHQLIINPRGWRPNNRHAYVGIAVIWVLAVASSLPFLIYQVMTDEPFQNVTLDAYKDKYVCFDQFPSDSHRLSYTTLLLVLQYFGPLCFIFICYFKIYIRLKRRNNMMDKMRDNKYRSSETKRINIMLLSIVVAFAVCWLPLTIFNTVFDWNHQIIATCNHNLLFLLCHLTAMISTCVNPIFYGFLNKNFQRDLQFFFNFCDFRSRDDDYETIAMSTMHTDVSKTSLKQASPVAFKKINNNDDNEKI

[3] = molecular target: T3, Neuropeptide Y receptor type 4 (Homo sapiens, UniProt P50391); assay: Partial agonist activity at human Y4 receptor expressed in sf9 cells assessed as hydrolysis of [gamma-33P]GTP after 2 mins by scintillation counting analysis relative to hPP
T3 sequence (P50391 whole entry): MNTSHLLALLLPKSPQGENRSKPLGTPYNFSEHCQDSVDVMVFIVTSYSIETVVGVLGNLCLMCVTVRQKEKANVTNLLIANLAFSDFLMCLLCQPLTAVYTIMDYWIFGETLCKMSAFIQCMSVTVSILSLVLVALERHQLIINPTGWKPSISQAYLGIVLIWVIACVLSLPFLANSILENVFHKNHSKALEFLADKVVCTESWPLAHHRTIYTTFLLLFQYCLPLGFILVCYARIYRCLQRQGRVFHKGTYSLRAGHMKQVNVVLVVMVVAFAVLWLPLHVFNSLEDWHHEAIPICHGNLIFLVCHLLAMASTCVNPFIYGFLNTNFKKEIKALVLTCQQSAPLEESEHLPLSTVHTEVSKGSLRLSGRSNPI

[4] = molecular target: T4, Neuropeptide Y receptor type 5 (Homo sapiens, UniProt Q15761); assay: Displacement of Cy5-pNPY from human Y5 receptor expressed in human HEC-1B cells after 90 to 120 mins by flow cytometry; format: cell-based
T4 sequence (Q15761 whole entry): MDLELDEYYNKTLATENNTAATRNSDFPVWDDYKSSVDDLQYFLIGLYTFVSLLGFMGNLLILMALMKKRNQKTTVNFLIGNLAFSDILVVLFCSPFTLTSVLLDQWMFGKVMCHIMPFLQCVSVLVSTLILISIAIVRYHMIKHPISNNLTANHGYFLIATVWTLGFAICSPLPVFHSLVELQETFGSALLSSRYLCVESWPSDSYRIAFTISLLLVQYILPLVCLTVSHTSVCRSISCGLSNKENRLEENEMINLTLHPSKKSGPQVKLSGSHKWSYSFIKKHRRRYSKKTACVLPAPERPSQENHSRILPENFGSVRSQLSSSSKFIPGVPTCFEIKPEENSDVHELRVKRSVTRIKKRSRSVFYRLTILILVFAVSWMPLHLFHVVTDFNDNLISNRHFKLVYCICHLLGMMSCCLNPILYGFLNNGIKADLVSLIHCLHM

[5] = molecular target: T3, Neuropeptide Y receptor type 4; assay: Displacement of Cy5-[K4]hPP from human Y4 receptor expressed in CHO cells after 90 to 120 mins by flow cytometry; format: cell-based
[6] = molecular target: T3, Neuropeptide Y receptor type 4; assay: Partial agonist activity at human Y4 receptor expressed in sf9 cells assessed as hydrolysis of [gamma-33P]GTP after 2 mins by scintillation counting analysis
[7] = molecular target: T4, Neuropeptide Y receptor type 5; assay: Binding affinity to Y5 receptor (unknown origin)
[8] = molecular target: T2, Neuropeptide Y receptor type 1; assay: Binding affinity to Y1 receptor (unknown origin)
[9] = molecular target: T3, Neuropeptide Y receptor type 4; assay: Binding affinity to human Y4 receptor
[10] = molecular target: T3, Neuropeptide Y receptor type 4; assay: Agonist activity at human Y4 receptor
[11] = Binding affinity to rabbit kidney Y2 receptor by radioligand binding assay; parameters: species or system Oryctolagus cuniculus
[12] = molecular target: T1, Neuropeptide Y receptor type 2; assay: Binding affinity to Y2 receptor (unknown origin) expressed in human LN319 cells by radioligand binding assay; format: cell-based
[13] = molecular target: T1, Neuropeptide Y receptor type 2; assay: Binding affinity to human Y2 receptor expressed in human SMS-KAN cells by radioligand binding assay; format: cell-based
[14] = molecular target: T3, Neuropeptide Y receptor type 4; assay: Agonist activity at human Y4 receptor expressed in sf9 cells assessed as hydrolysis of [gamma-33P]GTP after 2 mins by scintillation counting analysis
[15] = Binding affinity to Y2 receptor (unknown origin); parameters: species or system Homo sapiens

pKi [1]	pKi [2]	pKi [4]	pKi [5]	Compound	further results
< 6.00	6.55	< 6.00	7.12	CCCC[C@H](NC(=O)[C@H](CC(N)=O)NC(=O)[C@@H](NC(=O)[C@H](Cc1ccc(O)cc1)NC(=O)[C@H](CCCNC(=N)N)NC(=O)[C@H](CCCNC(=N)N)NC(C)=O)[C@@H](C)CC)C(=O)N[C@@H](CC(C)C)C(=O)N[C@H](C(=O)N[C@@H](CCCNC(=N)N)C(=O)N1CCC[C@H]1C(=O)N[C@@H](CCCNC(=N)N)C(=O)N[C@@H](Cc1ccc(O)cc1)C(N)=O)[C@@H](C)O (HELM PEPTIDE1{[ac].R.R.Y.I.N.[Nle].L.T.R.P.R.Y.[am]}$$$$V2.0)	Emax [3]: 70%; pEC50 [6]: 7.28
–	–	–	–	CC[C@H](C)[C@H](NC(=O)[C@H](Cc1ccc(O)cc1)NC(=O)[C@H](Cc1cnc[nH]1)NC(=O)[C@H](CCCNC(=N)N)NC(C)=O)C(=O)N[C@@H](CC(N)=O)C(=O)N[C@@H](CC(C)C)C(=O)N[C@H](C(=O)N[C@H](C(=O)N[C@@H](CCCNC(=N)N)C(=O)N[C@@H]1[C@H](C(=O)N[C@@H](CCCNC(=N)N)C(=O)N[C@@H](Cc2ccc(O)cc2)C(N)=O)[C@H]1C(=O)OC)[C@@H](C)O)[C@@H](C)CC (HELM PEPTIDE1{[ac].R.H.Y.I.N.L.I.T.R.[COC(=O)[C@H]1[C@H](N[*:1])[C@@H]1C(=O)[*:2]].R.Y.[am]}$$$$V2.0)	pKi [7]: 6.93; pKi [8]: 7.54
–	–	–	–	CC[C@H](C)[C@H](NC(=O)[C@H](Cc1ccc(O)cc1)NC(=O)[C@H](Cc1cnc[nH]1)NC(=O)[C@H](CCCN=C(N)N)NC(C)=O)C(=O)N[C@@H](CC(N)=O)C(=O)N[C@@H](CC(C)C)C(=O)N[C@@H](CCCN=C(N)N)C(=O)N[C@@H]1[C@H](C(=O)N[C@@H](CCCN=C(N)N)C(=O)N[C@@H]2[C@H](C(=O)N[C@@H](CCCN=C(N)N)C(=O)N[C@@H](Cc3ccc(O)cc3)C(N)=O)[C@H]2C(=O)OC)[C@H]1C(=O)OC (HELM PEPTIDE1{[ac].R.H.Y.I.N.L.R.[COC(=O)[C@H]1[C@H](N[*:1])[C@@H]1C(=O)[*:2]].R.[COC(=O)[C@H]1[C@H](N[*:1])[C@@H]1C(=O)[*:2]].R.Y.[am]}$$$$V2.0)	pKi [7]: 6.21; pKi [8]: 7.30
5.82	< 6.00	< 6.00	< 6.00	Ac-RHYINLITRQRY-NH2	pKi [11]: 7.99; pIC50 [12]: 6.88; pKi [13]: 8.15; pEC50 [14]: 6.28
–	–	–	–	Ac-RHYINLIYRLRY-NH2	pIC50 [15]: 7.92
< 6.00	< 6.00	< 6.30	8.00	CC[C@H](C)[C@H](NC(=O)[C@H](Cc1ccc(O)cc1)NC(=O)[C@H](Cc1cnc[nH]1)NC(=O)[C@H](CCCN=C(N)N)NC(C)=O)C(=O)N[C@@H](CC(N)=O)C(=O)N[C@@H](CC(C)C)C(=O)N[C@H](C(=O)N[C@H](C(=O)N[C@@H](CCCN=C(N)N)C(=O)N[C@H]1CCC[C@H]1C(=O)N[C@@H](CCCN=C(N)N)C(=O)N[C@@H](Cc1ccc(O)cc1)C(N)=O)[C@@H](C)O)[C@@H](C)CC (HELM PEPTIDE1{[ac].R.H.Y.I.N.L.I.T.R.[O=C([C@@H]1CCC[C@@H]1N[*:1])[*:2]].R.Y.[am]}$$$$V2.0)	pEC50 [6]: 7.39

Compound	pKi [1]	pKi [2]	pKi [4]	pKi [5]	further results
CC[C@H](C)[C@H](NC(=O)[C@H](CC(C)C)NC(=O)[C@H](CCSC)NC(=O)[C@H](CC(N)=O)NC(=O)[C@@H](NC(=O)[C@H](Cc1ccc(O)cc1)NC(=O)[C@H](CCCNC(=N)N)NC(=O)[C@H](CCCNC(=N)N)NC(=O)[C@H](CC(C)C)NC(=O)[C@H](CC(=O)O)NC(=O)[C@H](C)NC(=O)[C@H](C)NC(=O)[C@H](Cc1ccc(O)cc1)NC(=O)[C@H](CCC(N)=O)NC(=O)[C@H](C)NC(=O)[C@H](CCSC)NC(=O)[C@H](CCC(N)=O)NC(=O)[C@H](CCC(=O)O)NC(=O)[C@@H]1CCCN1C(=O)[C@@H](NC(=O)[C@H](C)NC(=O)[C@H](CC(N)=O)NC(=O)[C@H](CC(=O)O)NC(=O)CNC(=O)[C@@H]1CCCN1C(=O)[C@H](Cc1ccc(O)cc1)NC(=O)[C@@H](NC(=O)[C@@H]1CCCN1C(=O)[C@H](CCC(=O)O)NC(=O)[C@H](CC(C)C)NC(=O)[C@@H]1CCCN1C(=O)[C@H](C)N)C(C)C)[C@@H](C)O)[C@@H](C)O)C(=O)N[C@@H](CCCNC(=N)N)C(=O)N1CCC[C@H]1C(=O)N[C@@H](CCCNC(=N)N)C(=O)N[C@H](N)Cc1ccc(O)cc1 (HELM PEPTIDE1{A.P.L.E.P.V.Y.P.G.D.N.A.T.P.E.Q.M.A.Q.Y.A.A.D.L.R.R.Y.T.N.M.L.I.R.P.R.[N[C@H](Cc1ccc(O)cc1)N[*:1]]}$$$$V2.0)	< 5.30	6.36	7.77	< 6.00	pKi [9]: 9.28; pEC50 [10]: 7.96
